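Briefly, cells in 96-well plates were exposed to five compound concentrations for 48 h, and endpoints were estimated by linear interpolation. TGI: total growth inhibition.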
Assays:
Assay in all cases: inhibition of tumour cell growth, NCI panel, 48 h
786-0 renal = test system: 786-0 renal
ACHN renal = test system: ACHN renal
CAKI-1 renal = test system: CAKI-1 renal
CCRF-CEM leukemia = test system: CCRF-CEM leukemia
COLO 205 colon = test system: COLO 205 colon
DLD-1 colon = test system: DLD-1 colon
DMS 114 small cell lung = test system: DMS 114 small cell lung
DMS 273 small cell lung = test system: DMS 273 small cell lung
HCT-116 colon = test system: HCT-116 colon
HCT-15 colon = test system: HCT-15 colon
HOP-18 NSCLC = test system: HOP-18 NSCLC
HOP-62 NSCLC = test system: HOP-62 NSCLC
HOP-92 NSCLC = test system: HOP-92 NSCLC
HT29 colon = test system: HT29 colon
IGROV1 ovarian = test system: IGROV1 ovarian
K-562 leukemia = test system: K-562 leukemia
KM20L2 colon = test system: KM20L2 colon
LXFL 529 NSCLC = test system: LXFL 529 NSCLC
M14 melanoma = test system: M14 melanoma
M19-MEL melanoma = test system: M19-MEL melanoma
MALME-3M melanoma = test system: MALME-3M melanoma
MOLT-4 leukemia = test system: MOLT-4 leukemia
NCI-H460 lung = test system: NCI-H460 lung
NCI-H522 lung = test system: NCI-H522 lung
OVCAR-3 ovarian = test system: OVCAR-3 ovarian
OVCAR-4 ovarian = test system: OVCAR-4 ovarian
OVCAR-5 ovarian = test system: OVCAR-5 ovarian
RPMI-8226 leukemia = test system: RPMI-8226 leukemia
RXF 393 renal = test system: RXF 393 renal
RXF-631 renal = test system: RXF-631 renal
SF-539 CNS = test system: SF-539 CNS
SK-MEL-2 melanoma = test system: SK-MEL-2 melanoma
SK-MEL-28 melanoma = test system: SK-MEL-28 melanoma
SN12C renal = test system: SN12C renal
SNB-75 CNS = test system: SNB-75 CNS
SNB-78 CNS = test system: SNB-78 CNS
SR leukemia = test system: SR leukemia
SW-620 colon = test system: SW-620 colon
TK-10 renal = test system: TK-10 renal
UACC-257 melanoma = test system: UACC-257 melanoma
UACC-62 melanoma = test system: UACC-62 melanoma
UO-31 renal = test system: UO-31 renal

Measured: TGI

O=C1[C@@H]2C(c3cccc([N+](=O)[O-])c3)=NO[C@@H]2C(=O)N1c1ccc(Cc2ccc(N3C(=O)[C@H]4C(c5cccc([N+](=O)[O-])c5)=NO[C@H]4C3=O)cc2)cc1
> 100 µM: all assays above

From PubChem BioAssay (NCI)
